Assays:
PI3Kγ = biological target: T1, PI3Kγ (Homo sapiens, UniProt P48736); experiment: KINOMEscan biochemical kinase binding assay (Kd determination); conditions: for experimentally determined binding constant Kd: Fig. 4, commercially available compounds, absence of a value (−) = no observed binding; for Kd: average of N = 2 independent experiments
T1 construct: purchased Eurofins Discovery (KINOMEscan, fee-for-service)
Method: PI3Kγ binding assays were performed by Eurofins Discovery (https://www.eurofinsdiscoveryservices.com) on a fee-for-service basis. KINOMEscan™ was used to determine the dissociation constant Kd. […] Competition of the test compound with the immobilized ligand was measured via quantitative PCR (qPCR) of the DNA tag of DNA-tagged kinase. An 11-point three-fold serial dilution of each test compound was prepared in 100% DMSO at 100× final test concentration and subsequently diluted to 1× in the assay (final DMSO concentration = 1%). Dissociation constants were estimated with a standard dose-response curve using the Hill equation (Eq. 4)[71]:4 Response=Background+Signal−Background/1+KdHillslope/Dose^HillSlope, where the Hill slope was set to −1. Curves were fitted using a nonlinear least square fit with the Levenberg–Marquardt algorithm[72],[73].

[1] = system: HD-MB03 medulloblastoma cells; experiment: CellTiter-Glo cell viability/proliferation assay; type: cell-based, human; conditions: for IC50: Homo sapiens, HD-MB03, 72 h, 72 h exposure, medium supplemented with FBS, read-out: IC50 (CellTiter-Glo viability, best-fit)
Method: HD-MBO3 Group 3 medulloblastoma cells were cultured in RPMI medium supplemented with 10% fetal bovine serum (FBS, both from Sigma-Aldrich, St. Louis, USA), 1% Penicillin-Streptomycin, and 1% GlutaMAX (both from Gibco/Thermo Fisher Scientific, Waltham, USA). The cells were maintained at 37 °C in a humidified atmosphere containing 5% CO2. […] DMSO was used as solvent control in all assays.
Cell viability was determined using CellTiter-Glo® 2.0 Cell Viability Assay (G9242, Promega, Madison, USA). About 500 cells per 20 μl were seeded in a flat bottom 384-well plate (781098, Greiner bio-one, Kremsmünster, Austria). Increasing concentrations of compounds were deposited on cells using an HP Digital Drug Dispenser (Hewlett-Packard, Palo Alto, USA) with DMSO total volume normalization. After 72 h, the CellTiter-Glo reagent was added (volume/volume) following the manufacturer’s instructions. Luminescence representing the number of viable cells was quantified with a Cytation 3 imaging reader (BioTek, Winooski, USA). […] Prism 9 software (GraphPad Software, San Diego, CA, USA) was used to calculate best-fit values of inhibitor vs. normalized response and to predict IC50.

PI3Kα = conditions: cited from earlier work
PI3Kδ = conditions: cited from earlier work

T1 sequence (P48736 whole entry): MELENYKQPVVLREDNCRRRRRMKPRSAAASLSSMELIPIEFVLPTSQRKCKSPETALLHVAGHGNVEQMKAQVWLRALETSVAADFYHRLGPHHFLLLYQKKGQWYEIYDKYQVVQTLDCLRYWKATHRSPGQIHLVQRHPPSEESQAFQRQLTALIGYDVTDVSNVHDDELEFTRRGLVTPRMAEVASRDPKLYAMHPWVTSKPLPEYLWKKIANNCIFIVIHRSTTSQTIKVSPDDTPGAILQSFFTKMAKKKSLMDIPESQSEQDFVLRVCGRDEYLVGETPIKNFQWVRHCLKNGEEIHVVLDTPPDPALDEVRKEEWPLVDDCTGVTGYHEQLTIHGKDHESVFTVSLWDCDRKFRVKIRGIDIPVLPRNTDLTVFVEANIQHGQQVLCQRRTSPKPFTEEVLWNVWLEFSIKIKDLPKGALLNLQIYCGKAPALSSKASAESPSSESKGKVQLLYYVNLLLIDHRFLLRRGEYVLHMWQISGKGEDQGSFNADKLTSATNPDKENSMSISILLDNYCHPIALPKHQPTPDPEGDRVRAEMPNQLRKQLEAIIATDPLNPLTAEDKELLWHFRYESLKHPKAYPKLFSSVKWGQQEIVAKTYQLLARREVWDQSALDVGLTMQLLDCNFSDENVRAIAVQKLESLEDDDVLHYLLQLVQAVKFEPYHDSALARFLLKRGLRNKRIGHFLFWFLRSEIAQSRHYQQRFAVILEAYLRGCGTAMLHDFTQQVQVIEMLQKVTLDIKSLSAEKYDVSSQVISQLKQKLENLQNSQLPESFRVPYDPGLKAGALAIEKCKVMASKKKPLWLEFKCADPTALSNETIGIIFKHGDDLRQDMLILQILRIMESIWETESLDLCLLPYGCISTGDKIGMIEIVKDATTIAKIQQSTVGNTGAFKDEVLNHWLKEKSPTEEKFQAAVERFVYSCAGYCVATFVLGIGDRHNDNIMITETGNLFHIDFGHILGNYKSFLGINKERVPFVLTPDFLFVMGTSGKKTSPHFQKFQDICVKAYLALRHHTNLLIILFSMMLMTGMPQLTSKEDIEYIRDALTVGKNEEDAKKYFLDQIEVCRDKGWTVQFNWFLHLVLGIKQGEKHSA

SMILES	experimentally determined binding constant Kd (PI3Kγ)	also measured
COc1ccc(-c2cc(C(F)(F)F)n3ncc(C#N)c3n2)cc1OC [Compound 2]	no observed binding	PI3Kγ activity in vitro (biochemical assay), in words (PI3Kγ): inactive in vitro
COc1ccc(-c2nc(-c3ccc(F)cc3)no2)cc1OC [Compound 3]	no observed binding	–
COc1ccc(-c2cc(C(F)F)n3ncc(C#N)c3n2)cc1OC [Compound 4]	no observed binding	PI3Kγ activity in vitro (biochemical assay), in words (PI3Kγ): inactive in vitro
COc1ccc(-c2nnc(C(C)C)s2)cc1OC [Compound 5]	no observed binding	–
COc1ccc(-c2cnc(N)cc2C)cc1OC [Compound 6]	no observed binding	–
COc1ccc(-c2cc(CCl)no2)cc1OC [Compound 7]	no observed binding	–
COc1ccc(-c2cnoc2-c2cc(OC)c(OC)c(OC)c2)cc1O [Compound 16]	no observed binding	–
CC(C)n1nc(-c2cc(Cl)c(O)c(C3CC3)c2)c2c(N)ncnc21 [Compound 20]	–	Kd (PI3Kγ): 120 nM
CC(C)n1nc(-c2cc(C3CC3)c(O)c(C3CC3)c2)c2c(N)ncnc21 [Compound 21]	–	Kd (PI3Kγ): 290 nM
CC(C)n1nc(-c2cc(Cl)c(O)c(Cl)c2)c2c(N)ncnc21 [Compound 22]	–	effect on viability at 100 nM ([1]; 100 nM concentration): neither 18 nor 22 caused a significant reduction in viability; IC50 [1]: 188 nM; Kd (PI3Kγ): 13 nM
COc1c(OCCCN2CCOCC2)ccc2c1N=C(NC(=O)c1cnc(N)nc1)N1CCN=C21 [copanlisib, Copanlisib]	–	inhibitory activity against PI3Kα (PI3Kα): sub-nanomolar; IC50 [1]: 19.4 nM; inhibitory activity against PI3Kδ (PI3Kδ): sub-nanomolar

Further lines, with some results ahead:

experimentally determined binding constant Kd (PI3Kγ)	SMILES	also measured
no observed binding	COc1ccc(C(=O)Nc2ccc3ccccc3c2)cc1OC [Compound 8]	–
no observed binding	COc1ccc(-c2nc(-c3ccc(F)cc3)c(-c3ccc(F)cc3)[nH]2)cc1O [Compound 9]	–
no observed binding	COc1ccc(Nc2nc(-c3ccc(Br)cc3)nc3ccccc23)cc1OC [Compound 10]	–
no observed binding	COc1ccc(-c2nnc(CCl)o2)cc1OC [Compound 11]	–
no observed binding	COc1ccc(-c2nc(CN)no2)cc1OC [Compound 12]	–
no observed binding	COc1ccc(-c2noc(-c3ccc(O)cc3)n2)cc1OC [Compound 13]	–
no observed binding	COc1ccc(-c2nc(CCl)c(C)o2)cc1OC [Compound 14]	–
no observed binding	COc1ccc(Nc2ncccc2[N+](=O)[O-])cc1OC [Compound 15]	–

— PMC9825622, “Leveraging molecular structure and bioactivity with chemical language models for de novo drug design” (Nature Communications, 2023)
